This is an account of results in patent US10039806B2, “Methods and compositions for treating antiprogestin-resistant cancers” (Fundación Sales, priority 2011, dated 2018).

Like-named read-outs stand apart in the source and are kept apart here.

For data set [1], the target named is T1, PR (Homo sapiens, UniProt P06401).
T1 sequence (P06401 1-933): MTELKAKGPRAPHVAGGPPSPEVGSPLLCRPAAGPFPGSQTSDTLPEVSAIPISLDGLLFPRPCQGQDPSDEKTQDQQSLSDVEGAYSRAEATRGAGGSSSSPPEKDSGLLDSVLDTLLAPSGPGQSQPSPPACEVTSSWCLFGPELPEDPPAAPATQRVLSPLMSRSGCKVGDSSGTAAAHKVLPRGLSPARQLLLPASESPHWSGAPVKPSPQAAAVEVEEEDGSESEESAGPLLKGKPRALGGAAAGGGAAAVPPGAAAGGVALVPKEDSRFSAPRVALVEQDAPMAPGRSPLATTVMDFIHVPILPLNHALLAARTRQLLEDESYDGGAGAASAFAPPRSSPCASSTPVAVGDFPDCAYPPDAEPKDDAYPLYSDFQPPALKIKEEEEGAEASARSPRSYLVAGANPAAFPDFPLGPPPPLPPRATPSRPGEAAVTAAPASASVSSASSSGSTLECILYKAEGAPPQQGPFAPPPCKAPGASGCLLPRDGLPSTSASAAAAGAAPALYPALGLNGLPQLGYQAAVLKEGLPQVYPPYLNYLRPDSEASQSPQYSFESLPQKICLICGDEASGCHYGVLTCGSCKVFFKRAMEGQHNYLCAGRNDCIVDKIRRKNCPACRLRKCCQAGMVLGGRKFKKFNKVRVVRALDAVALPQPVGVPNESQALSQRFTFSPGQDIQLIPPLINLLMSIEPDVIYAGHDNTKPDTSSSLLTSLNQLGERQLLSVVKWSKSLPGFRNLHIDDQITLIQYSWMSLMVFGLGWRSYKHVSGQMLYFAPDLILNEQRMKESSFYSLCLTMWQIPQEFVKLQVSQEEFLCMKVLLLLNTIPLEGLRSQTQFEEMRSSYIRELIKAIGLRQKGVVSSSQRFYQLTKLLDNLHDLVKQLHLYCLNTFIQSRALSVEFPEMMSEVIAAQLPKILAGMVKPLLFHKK
The note with it: cited from earlier work.

For a further data set, the target named is GR (Homo sapiens, UniProt P04150). The settings on record: cited from earlier work.
The test system of data set [2] is HI-responsive tumors. The data set is described as follows: MPA breast cancer model, HI-responsive tumors in vivo. Details: species or system mouse.
In another data set the target is T2, glucocorticoid receptor (Homo sapiens, UniProt P04150).
T2 sequence (P04150 1-777): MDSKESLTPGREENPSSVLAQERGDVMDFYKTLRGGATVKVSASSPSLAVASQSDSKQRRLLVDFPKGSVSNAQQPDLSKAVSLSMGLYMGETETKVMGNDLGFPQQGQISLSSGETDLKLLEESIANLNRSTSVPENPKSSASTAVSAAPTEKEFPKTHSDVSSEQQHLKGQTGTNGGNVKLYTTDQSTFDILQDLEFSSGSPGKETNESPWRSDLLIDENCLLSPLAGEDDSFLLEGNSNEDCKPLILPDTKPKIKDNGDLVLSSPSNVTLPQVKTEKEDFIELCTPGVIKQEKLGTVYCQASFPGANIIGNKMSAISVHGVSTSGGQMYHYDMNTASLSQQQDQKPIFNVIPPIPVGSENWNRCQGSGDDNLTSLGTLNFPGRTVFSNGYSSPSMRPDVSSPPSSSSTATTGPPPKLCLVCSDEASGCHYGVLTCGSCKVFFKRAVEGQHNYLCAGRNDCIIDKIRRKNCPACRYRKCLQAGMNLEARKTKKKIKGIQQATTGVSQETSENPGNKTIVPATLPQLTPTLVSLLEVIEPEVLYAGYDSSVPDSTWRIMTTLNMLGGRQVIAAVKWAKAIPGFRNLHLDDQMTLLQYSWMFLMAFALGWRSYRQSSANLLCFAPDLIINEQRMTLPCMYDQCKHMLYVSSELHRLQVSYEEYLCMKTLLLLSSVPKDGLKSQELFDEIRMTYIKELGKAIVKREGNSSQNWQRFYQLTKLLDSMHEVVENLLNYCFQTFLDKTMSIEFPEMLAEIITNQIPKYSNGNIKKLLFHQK
The settings on record: cited from earlier work.

In a further data set the test system is T61 human tumors. The note with it: in vivo; cited from earlier work.
The subject of data set [3] is DMBA-induced mammary tumors. The settings on record: cited from earlier work.
The test system of data set [4] is MXT mouse model of breast cancer. The settings on record: cited from earlier work.
For the next data set, the system named is MCF-7 xenografts. The settings on record: MIF 50 mg/kg/day, ONA 30 mg/kg/day, 17 days; cited from earlier work.
Data set [5] relates to HI-responsive tumors. The settings on record: cited from earlier work; for therapeutic effects: murine mammary carcinomas with increased PR-A/PR-B.
A further data set concerns T47D cells. The note with it: cited from earlier work.
Data set [6] has as its system primary cultures of responsive tumors. The settings on record: 1-100 nM; cited from earlier work.
The next data set concerns breast cancer. The note with it: cited from earlier work.
In data set [7] the target is T1, PR. The note with it: cited from earlier work. This is another data set of the same source.
The subject of data set [8] is epithelial cells from breast cancer samples. The data set is described as follows: Primary cultures from breast cancer samples: cell number or Ki67. It counts as cell-based, human. The note with it: 10^-8 M, one week; 3 out of 8 cases; p<0.05. The text has this:
The samples were obtained at surgery from patients diagnosed with breast cancer at the […]. de Martinez Hospital from General Pacheco and at the […] Hospital of Buenos Aires after signing the informed consent (n=70; median age 55 year). Protocols were approved by the Institutional Ethical Review Board. Whenever possible, one piece of the sample was kept in dry ice immediately after surgery and another piece was kept in culture medium and transported to IBYME. Tumor samples were processed by mechanical and enzymatic degradation and epithelial cells were purified by differential sedimentation techniques (7). The epithelial cells were cultured with DMEM/F12 medium plus 10% fetal calf serum (FCS). Once the cultures were overcrowded, they were subcultured and equal numbers of cells were seeded in 24 well plates. […] OH-Tamoxifen was also used as a control. After one week of treatment, the cells were trypsinized and the total number of cells in each well was counted or alternatively, they were fixed to evaluate the Ki67 (proliferation marker) expression by IHC. In several cases in which there were carcinoma associated fibroblasts intermingled with the epithelial cells, a double staining of Ki67 and cytokeratin (CK) was performed to consider the proliferating cells among the total number of epithelial cells (CK+). An inhibitory index was calculated for each tumor.

The test system of the next data set is MCF-7 cells. The settings on record: 10 nM; 10% steroid-deficient human serum; cited from earlier work.
For a further data set, the system named is C4-HI cells. Nature of the data set: (3H)-thymidine uptake, primary cultures of purified epithelial cells. The note with it: 48 h, with MPA; P<0.001. It counts as cell-based, mouse. The method, then: (§1) Epithelial cells and carcinoma-associated fibroblasts were separated by differential sedimentation and plated with 10% FCS. Carcinoma-associated fibroblasts were allowed to attach for 0.5 h and the epithelial cells for 24-48 h. The medium was replaced by fresh medium with 10% FCS; thereafter, it was changed every 2-3 days.
(§2) (3H)-thymidine-uptake was used as an indirect method to evaluate cell proliferation. In brief, cells were seeded into 96-well microplates. After attachment (24 h), the cells were incubated for 24 h with 1% steroid-stripped FCS and then for 48 h with the experimental solutions to be tested in 1% chFCS. Fifty percent of the medium was replaced with fresh medium every 24 h. The cells were incubated with 0.4 μCi of 3H-thymidine (specific activity: 20 Ci/mmol) for 24 h, trypsinized, and harvested in a cell harvester. In experiments in which 5azadC was used, the experiments were carried out using proliferating cells (presence of 10% FCS) to guarantee the effect of the demethylating agent. Three different experiments were made using octuplicates, and the means and standard deviations of one representative experiment of the other three are shown. The results are expressed as the proliferation index (cpm […] experimental group/cpm control; mean±SEM).

The test system of the next data set is C4-HIR cells. Described as above. It counts as cell-based, mouse. The settings on record: 48 h, with MPA; P<0.001. The method, then: as §1, §2

On to `C/C=C\[C@]1(O)CC[C@H]2[C@@H]3CCC4=CC(=O)CCC4=C3[C@@H](c3ccc(N(C)C)cc3)C[C@@]21C` [Aglepristone], for which the PR affinity entry at PR [1] is “high affinity”. For the same compound, on GR, the GR affinity entry was “lower affinity”. The tumor regression entry in the data set on HI-responsive tumors [2] (3 mg/week, unpublished data) is “regress”.
Take `CC(=O)O[C@]1(C(C)=O)CC[C@H]2[C@@H]3CCC4=CC(=O)CCC4=C3[C@@H](c3ccc(N(C)C)cc3)C[C@@]21C` [CDB-2914]: the antiglucocorticoid activity result at glucocorticoid receptor is listed as “less than that of MIF”.
Turning to `COCC(=O)[C@@]1(OC(C)=O)CC[C@H]2[C@@H]3CCC4=CC(=O)CCC4=C3[C@@H](c3ccc(N(C)C)cc3)C[C@@]21C` [CDB-4124], the antiglucocorticoid activity entry on glucocorticoid receptor is given as “less than that of MIF”.
On to `C[C@]12CC[C@@H]3c4ccc(O)cc4CC[C@H]3[C@@H]1CC[C@@H]2O` [E2, 17-β-Estradiol], for which the tumor growth result in the data set with T61 human tumors is recorded as “induces tumor regression”. In the data set on HI-responsive tumors [2] (0.5-5 mg), the tumor regression result was “regress”.
`CN(C)c1ccc([C@H]2C[C@]3(C)[C@@H](CC[C@]3(O)CCCO)[C@@H]3CCC4=CC(=O)CCC4=C32)cc1` [ONA, onapristone]: the “efficacy compared with MIF” value in [3] (same doses) is listed as “more efficacious than MIF”. Besides, the tumor growth result in the data set on T61 human tumors is listed as “has no effect”. In addition, the “inhibition of cell proliferation compared with MIF” value in data set [4] (10 mg/kg/day) was “better than MIF at inhibiting cell proliferation”. For the same compound, in data set [4] (1 or 10 mg/kg/day from one day post-transplantation), the “tumor take and stimulatory effects of E2 and MPA” value is “inhibited both tumor take and the stimulatory effects of E2 and MPA”. Moreover, in the data set with MCF-7 xenografts, the “E2-induced proliferation of xenografts” value is “inhibited”. Also, at glucocorticoid receptor, the antiglucocorticoid activity result is on record as “antiglucocorticoid effects at higher concentrations”. Also, the tumor regression entry in the data set with HI-responsive tumors [5] (daily doses of 10 mg/kg) was “regress”. Further, the tumor regression result in the data set with HI-responsive tumors [5] (mouse, in vivo) is on record as “induced tumor regression”. Moreover, the therapeutic effects entry with HI-responsive tumors [5] was “excellent therapeutic effects”. In the data set with T47D cells (5% FCS), the “effects on T47D cells” value was “inhibitory effects”. For the same compound, the “MPA-induced or FGF2-induced cell proliferation” value in [6] is on record as “inhibited MPA-induced or FGF2-induced cell proliferation”. Besides, in the data set with breast cancer (19 patients), the partial response is recorded as 56% and the stable disease is recorded as 11%. Moreover, in the data set with breast cancer (human, in vivo), the reason for discontinuation result is given as “hepatotoxicity” and the “reason for stopping the trial” value was “liver function test abnormalities”. On PR [7] (T47D cells transfected with MMTV-CAT), the “effect in cells treated with analogs of cyclic AMP” value is given as “still behaved as an antagonist”.
For the compound `C[C@@H]1C[C@@H]2C(=C3CCC(=O)C=C31)[C@@H](c1ccc(N(C)C)cc1)C[C@@]1(C)[C@H]2CC[C@@]12CCCO2` [Org 31710], the “efficacy compared with MIF” value in [3] (p.o.) is reported as “more effective than MIF”.
Consider `C[C@H]1CC2=CC(=O)CCC2=C2[C@@H]1[C@@H]1CC[C@@]3(CCCO3)[C@@]1(C)C[C@@H]2c1ccc(N(C)C)cc1` [Org 31806], for which the “efficacy compared with MIF” value in data set [3] (p.o.) is recorded as “more effective than MIF”.
On to `CCC(=O)[C@@]1(C)CC[C@H]2[C@@H]3CCC4=CC(=O)CCC4=C3CC[C@@]21C` [R5020], for which the “proliferation of T47D and MCF-7 cells” value in the data set on T47D cells (MIF at micromolar concentrations) is on record as “stimulate the proliferation”.
Regarding `CC/C(=C(\c1ccccc1)c1ccc(OCCN(C)C)cc1)c1ccccc1` [Tamoxifen, tamoxifen], the “PR (and ER) expression” value in [3] (rat, in vivo) is listed as “increased PR expression”. The tumor growth result is listed as “inhibits tumor growth” in the data set with T61 human tumors and “tumor growth was inhibited” in the data set with HI-responsive tumors [2] (mouse, in vivo). In addition, the “number of cells as compared to the controls” value in data set [8] is recorded as “significant decrease in the number of cells”. Also, the E2-induced cell proliferation entry in the data set on T47D cells (clone 11, ER- and PR-positive) was “specifically inhibit E2-induced cell proliferation”; in the data set on MCF-7 cells, “inhibited E2-induced cell proliferation”.
Take `CC#C[C@]1(O)CC[C@H]2[C@@H]3CCC4=CC(=O)CCC4=C3[C@@H](c3ccc(C(C)=O)cc3)C[C@@]21C` [ZK 112993]: the tumor growth result with T61 human tumors is recorded as “significantly inhibits the growth”.
In the case of `CC(=O)c1ccc([C@H]2C[C@@]3(C)[C@@H](CC[C@@]3(O)C(F)(F)C(F)(F)F)[C@@H]3CCC4=CC(=O)CCC4=C32)cc1` [ZK 230211, lonaprisan], at glucocorticoid receptor, the antiglucocorticoid activity result is on record as “low antiglucocorticoid activity”. Besides, the MPA-induced proliferative effect result in the data set on C4-HI cells and in the data set with C4-HIR cells was “abolished” each time. The tumor regression entry in the data set on HI-responsive tumors [5] (daily doses of 10 mg/kg) was “regress”; in the data set on HI-responsive tumors [5] (mouse, in vivo), “induced tumor regression”. Besides, the therapeutic effects entry in the data set on HI-responsive tumors [5] is “excellent therapeutic effects”. Moreover, the apoptosis entry in the data set on T47D cells (10 nM) is “induces apoptosis”. Moreover, the “MPA-induced or FGF2-induced cell proliferation” value in [6] is reported as “inhibited MPA-induced or FGF2-induced cell proliferation”. The “effect on PKA-activated PR-B” value on PR [7] is “no effect on PKA-activated PR-B”.
